Source: PubChem BioAssay (NCI)
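Protocol summary: plate cells (96-well), add compound at 5 concentrations, incubate 48 h, interpolate endpoints linearly. TGI is the concentration that stops growth completely.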

Experiments:
Experiment in all cases: DTP human tumour cell line panel, 48 h
SK-MEL-2 melanoma = system: SK-MEL-2 melanoma
NCI-H460 lung = system: NCI-H460 lung
NCI-H226 lung = system: NCI-H226 lung
RXF 393 renal = system: RXF 393 renal
CAKI-1 renal = system: CAKI-1 renal
HCT-15 colon = system: HCT-15 colon
IGROV1 ovarian = system: IGROV1 ovarian
MALME-3M melanoma = system: MALME-3M melanoma
SK-MEL-28 melanoma = system: SK-MEL-28 melanoma
HOP-92 NSCLC = system: HOP-92 NSCLC

SMILES | TGI (SK-MEL-2 melanoma) [µM] | TGI (NCI-H460 lung) [µM] | TGI (NCI-H226 lung) [µM] | TGI (RXF 393 renal) [µM] | TGI (CAKI-1 renal) [µM] | TGI (HCT-15 colon) [µM] | TGI (IGROV1 ovarian) [µM] | TGI (MALME-3M melanoma) [µM] | TGI (SK-MEL-28 melanoma) [µM] | TGI (HOP-92 NSCLC) [µM]
C=Cc1ccccc1C1(O)C=CC(OC)(OC)C=C1 | 37.9 | 21.9 | 80.9 | 14.8 | 18.4 | 13.1 | 27 | 27.8 | 20.8 | –
Cc1c2c(OCC3CCCCO3)nn(C)c(=O)c2c(C)n1-c1ccccc1 (centres undefined) | 39.4 | 30.9 | 42.7 | 34.3 | 59 | 33.4 | 37.8 | 33.1 | – | 33.1
NC(=O)N/N=C1\CC2C3CC4C2C4C13 (centres undefined) | > 100 | > 100 | > 100 | – | > 100 | > 100 | > 100 | > 100 | > 100 | > 100
CCCCCCCCCc1nn2c(Cc3ccccc3)nnc2s1 | 39.3 | 39.2 | – | 38.3 | > 100 | 35.4 | – | – | 33.8 | –
CN(C)CCC(=O)/C=C\c1ccccc1 | – | 37.5 | 49.3 | 29.2 | 32.7 | 30.9 | 62 | 32.8 | 30.9 | 32.9
O=c1[nH]c(=O)n(C2CC(O)C(CO)O2)cc1OCc1ccccc1 (centres undefined) | – | > 100 | > 100 | > 100 | > 100 | > 100 | > 100 | > 100 | > 100 | –
O=C(N/N=C/c1ccc(Br)cc1)N/N=C/c1ccc(Br)cc1 | > 100 | – | 22.9 | 40.5 | 18 | > 100 | 27.7 | 15.6 | 26.9 | –
COc1cc2c(cc1OC)-c1cc3ccccc3c(=O)n1CC2 | 48.8 | 67.5 | > 100 | 21.6 | 64.9 | – | 72.8 | 61.5 | 90.5 | 63
CC(=O)OCc1c(O)c2c(c(O)c1COC(C)=O)C(=O)C=CC2=O | 8.84 | – | 32.5 | – | 21.8 | 38.1 | 30.5 | 20.5 | 22.8 | 7.24
N#Cc1nc(NC(=O)c2ccccc2C(=O)O)c(C#N)[nH]1 | > 100 | – | > 100 | – | > 100 | – | > 100 | > 100 | > 100 | > 100
COc1ccc(CC2COc3cc(O)cc(O)c3C2=O)cc1O (centres undefined) | > 100 | > 100 | – | > 100 | > 100 | > 100 | > 100 | > 100 | > 100 | > 100
CCOC(=O)C#Cc1ccccc1 | 5.86 | > 100 | > 100 | – | 33.4 | > 100 | – | 33.2 | 44.3 | 36.9
COC1CC(OC2CCC3(C)C(=CCC4C3C(OC(C)=O)C(OC(=O)CC(C)C)C3(C)C(C(C)=O)CCC43O)C2)OC(C)C1OC1CC(OC)C(OC2CC(OC)C(OC3OC(C)C(OC4OC(CO)C(O)C(O)C4O)C(OC)C3O)C(C)O2)C(C)O1 (centres undefined) | > 75 | > 7.5 | > 75 | – | > 75 | > 75 | > 75 | – | > 75 | > 75
COc1nc(C#CC(C)(C)C)nc(OC)n1 | > 100 | > 100 | – | > 100 | 51.9 | 61.5 | > 100 | 46.9 | > 100 | –
CC12CCCC3(CC(=O)C(C)(C)C3C(=O)C1)C2 (centres undefined) | > 100 | > 100 | > 100 | – | > 100 | > 100 | > 100 | > 100 | > 100 | > 100
O=c1cc(-c2ccccc2)oc2c(-c3cc(Cl)cc4c(=O)cc(-c5ccccc5)oc34)cc(Cl)cc12 | > 100 | > 100 | 83 | > 100 | – | > 100 | > 100 | 75.8 | > 100 | –
CCOP(=O)(/C=C\n1ccc(N)nc1=O)OCC | > 100 | > 100 | > 100 | > 100 | > 100 | > 100 | > 100 | – | > 100 | –
CN(C)CCNC(=O)c1cccc2nc(-c3ccccc3)oc12 | > 100 | > 100 | 84 | > 100 | – | > 100 | > 100 | 99 | > 100 | 59.4
COc1ccc(-c2cc(-c3ccccc3)[nH]c(=S)c2C#N)cc1 | – | 81.7 | 96.2 | > 100 | > 100 | > 100 | > 100 | > 100 | 58.7 | 98.3
CC(C(=O)O)C(C)(O)C(=O)O (centres undefined) | > 100 | > 100 | > 100 | > 100 | > 100 | > 100 | > 100 | > 100 | > 100 | –
O=c1[nH]c(Nc2cccc(CO)c2)nc2nc[nH]c12 | > 100 | – | > 100 | > 100 | > 100 | > 100 | > 100 | > 100 | > 100 | > 100
NS(=O)(=O)c1cccc(NC(=S)NC(=O)Nc2ccc(Cl)c(Cl)c2)c1 | 40.2 | 44.6 | – | 58.9 | – | 33.6 | 45.4 | 29.4 | 42.9 | 54
COc1c(O)c2c(=O)cc(OC)c3c4c(OC)cc(=O)c5c(O)c(OC)c6c(c(c1C(C(C)O)C6C(C)O)c23)c54 (centres undefined) | 3.73 | 1.18 | 5.46 | 1.76 | 0.842 | – | 2.3 | 2.75 | – | 1.49
c1c2c(cc(-n3nnc4c3CCCCCC4)c1-n1nnc3c1CCCCCC3)CCCCCC2 | 34.6 | 18.9 | 41.6 | 21.6 | 7.17 | 19 | 41.2 | – | 33.9 | 12.6
COC(=O)C1(Cc2ccc3c(c2)CCC3)Cc2ccccc2C1 | 72 | > 100 | > 100 | – | > 100 | > 100 | > 100 | > 100 | > 100 | –
